According to ChEMBL document CHEMBL1201862, “PubChem BioAssay data set” (2004):
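Grown in 96-well plates, cells were treated for 48 hours with each compound at five concentrations. Insufficient inhibition: endpoint recorded as highest concentration tested. Here, GI50 denotes the concentration required for 50% inhibition of growth.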 Calls of active or inactive are those of the source. No stated cut-off is given here; in the data, active = GI50 up to about 1.1 µM and inactive = higher.

How the values were obtained:
Experiment in all cases: DTP human tumour cell line panel, 48 h
Malme-3M = test system: Malme-3M
MDA-MB-231 = test system: MDA-MB-231
SF-539 = test system: SF-539
NCI/ADR-RES = test system: NCI/ADR-RES
LOX IMVI = test system: LOX IMVI
UO-31 = test system: UO-31
KM12 = test system: KM12
A498 = test system: A498
SF-268 = test system: SF-268
UACC-257 = test system: UACC-257
SK-MEL-5 = test system: SK-MEL-5
HOP-62 = test system: HOP-62
DU-145 = test system: DU-145
HCC 2998 = test system: HCC 2998
MDA-MB-435 = test system: MDA-MB-435
IGROV-1 = test system: IGROV-1
SW-620 = test system: SW-620
786-0 = test system: 786-0
MOLT-4 = test system: MOLT-4
RPMI-8226 = test system: RPMI-8226

Measured: GI50

CCCNC(=S)N/C=C1/C(=O)Oc2ccccc2C1=O
inactive: Malme-3M 63.7 µM | MDA-MB-231 > 100 µM | SF-539 > 100 µM | NCI/ADR-RES > 100 µM | LOX IMVI > 100 µM | UO-31 28.4 µM | KM12 > 100 µM | A498 88.9 µM | SF-268 > 100 µM | UACC-257 > 100 µM | SK-MEL-5 > 100 µM | HOP-62 > 100 µM | DU-145 54.1 µM | HCC 2998 > 100 µM | MDA-MB-435 > 100 µM | IGROV-1 89.9 µM | SW-620 > 100 µM | 786-0 > 100 µM | MOLT-4 > 100 µM

CC1=C(C(=O)NCCCN(CCO)CCO)CC(C(=O)NCCCN(CCO)CCO)=C(C)N1
inactive: MDA-MB-231 40.7 µM | SF-539 > 100 µM | NCI/ADR-RES > 100 µM | LOX IMVI > 100 µM | UO-31 93.5 µM | KM12 85.1 µM | A498 27.4 µM | SF-268 34.8 µM | UACC-257 > 100 µM | SK-MEL-5 22.2 µM | HOP-62 > 100 µM | DU-145 > 100 µM | HCC 2998 > 100 µM | MDA-MB-435 56 µM | IGROV-1 > 100 µM | SW-620 > 100 µM | 786-0 > 100 µM | RPMI-8226 76 µM | MOLT-4 > 100 µM

O=C1c2cc(Cl)ccc2-n2cnnc2C2CSCN12 (stereo unspecified)
inactive: Malme-3M > 100 µM | MDA-MB-231 > 100 µM | NCI/ADR-RES > 100 µM | LOX IMVI > 100 µM | UO-31 > 100 µM | KM12 > 100 µM | A498 55.6 µM | SF-268 > 100 µM | UACC-257 > 100 µM | SK-MEL-5 > 100 µM | HOP-62 > 100 µM | DU-145 > 100 µM | HCC 2998 > 100 µM | MDA-MB-435 > 100 µM | IGROV-1 > 100 µM | SW-620 > 100 µM | 786-0 > 100 µM | RPMI-8226 > 100 µM | MOLT-4 > 100 µM

CN(C)CN1CSC(=S)N(CN(C)C)C1
inactive: Malme-3M > 100 µM | MDA-MB-231 > 100 µM | NCI/ADR-RES > 100 µM | LOX IMVI > 100 µM | UO-31 > 100 µM | KM12 > 100 µM | A498 > 100 µM | SF-268 > 100 µM | UACC-257 > 100 µM | SK-MEL-5 > 100 µM | HOP-62 > 100 µM | DU-145 > 100 µM | HCC 2998 > 100 µM | MDA-MB-435 > 100 µM | IGROV-1 54.3 µM | SW-620 > 100 µM | 786-0 43 µM | MOLT-4 26.7 µM

O=C1Nc2ccccc2Cn2c1cc1oc(-c3ccccc3)cc12
inactive: Malme-3M 30.3 µM | MDA-MB-231 32.5 µM | SF-539 29.7 µM | NCI/ADR-RES 45.5 µM | LOX IMVI > 100 µM | KM12 95.1 µM | A498 36.5 µM | SF-268 24 µM | UACC-257 > 100 µM | SK-MEL-5 7.57 µM | HOP-62 21.6 µM | DU-145 17.3 µM | HCC 2998 > 100 µM | MDA-MB-435 > 100 µM | IGROV-1 29.8 µM | SW-620 > 100 µM | 786-0 20.4 µM | MOLT-4 > 100 µM

N#Cc1c(=O)c2cccnc2n2c1[nH]c1ccccc12
inactive: MDA-MB-231 27 µM | SF-539 55.8 µM | NCI/ADR-RES 64.6 µM | LOX IMVI > 100 µM | UO-31 48.6 µM | KM12 80.7 µM | A498 77.3 µM | SF-268 49.1 µM | UACC-257 > 100 µM | HOP-62 41.4 µM | DU-145 > 100 µM | HCC 2998 > 100 µM | MDA-MB-435 > 100 µM | IGROV-1 > 100 µM | SW-620 > 100 µM | 786-0 32.1 µM | RPMI-8226 > 100 µM | MOLT-4 > 100 µM
